Reference: paper PMC10176470, “Engaging a Non-catalytic Cysteine Residue Drives Potent and Selective Inhibition of Caspase-6” (Journal of the American Chemical Society, 2023)

Experiments:
Assay type in all cases: cell-based
[1] = target: proteins of HEK293T cells transiently overexpressing caspase-6 (Homo sapiens, UniProt P02533); settings: Probe; protein KRT14 P02533
[2] = target: proteins of HEK293T cells transiently overexpressing caspase-6 (Homo sapiens, UniProt P07900); settings: exp_ref Probe; protein HSP90AA1 (P07900); analysis C6
[3] = target: proteins of HEK293T cells transiently overexpressing caspase-6 (Homo sapiens, UniProt P10155); settings: Probe; protein TROVE2 P10155
Chain of proteins of HEK293T cells transiently overexpressing caspase-6 (Homo sapiens, UniProt P10155) (P10155 whole entry): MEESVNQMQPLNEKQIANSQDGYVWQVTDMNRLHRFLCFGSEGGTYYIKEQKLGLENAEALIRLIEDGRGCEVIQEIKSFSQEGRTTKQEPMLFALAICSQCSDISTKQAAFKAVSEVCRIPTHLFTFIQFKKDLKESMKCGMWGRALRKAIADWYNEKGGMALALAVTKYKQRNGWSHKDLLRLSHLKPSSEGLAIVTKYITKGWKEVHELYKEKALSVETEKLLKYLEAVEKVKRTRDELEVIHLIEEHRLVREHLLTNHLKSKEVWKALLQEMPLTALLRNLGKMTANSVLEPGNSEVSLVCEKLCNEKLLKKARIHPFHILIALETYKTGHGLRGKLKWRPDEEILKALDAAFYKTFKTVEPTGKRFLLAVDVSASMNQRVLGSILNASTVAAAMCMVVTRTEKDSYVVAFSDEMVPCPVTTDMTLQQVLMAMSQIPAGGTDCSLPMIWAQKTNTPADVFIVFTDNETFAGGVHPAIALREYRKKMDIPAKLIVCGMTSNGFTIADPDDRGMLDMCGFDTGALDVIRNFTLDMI

[4] = target: proteins of HEK293T cells transiently overexpressing caspase-6 (Homo sapiens, UniProt P13647); settings: Probe; protein KRT5 P13647
[5] = target: proteins of HEK293T cells transiently overexpressing caspase-6 (Homo sapiens, UniProt P17844); settings: exp_ref Probe; protein DDX5 (P17844); analysis C6
[6] = target: proteins of HEK293T cells transiently overexpressing caspase-6 (Homo sapiens, UniProt P18621); settings: exp_ref Probe; protein RPL17 (P18621); analysis C6
[7] = target: proteins of HEK293T cells transiently overexpressing caspase-6 (Homo sapiens, UniProt P22102); settings: exp_ref Probe; protein GART (P22102); analysis C6
Chain of proteins of HEK293T cells transiently overexpressing caspase-6 (Homo sapiens, UniProt P22102) (P22102 whole entry): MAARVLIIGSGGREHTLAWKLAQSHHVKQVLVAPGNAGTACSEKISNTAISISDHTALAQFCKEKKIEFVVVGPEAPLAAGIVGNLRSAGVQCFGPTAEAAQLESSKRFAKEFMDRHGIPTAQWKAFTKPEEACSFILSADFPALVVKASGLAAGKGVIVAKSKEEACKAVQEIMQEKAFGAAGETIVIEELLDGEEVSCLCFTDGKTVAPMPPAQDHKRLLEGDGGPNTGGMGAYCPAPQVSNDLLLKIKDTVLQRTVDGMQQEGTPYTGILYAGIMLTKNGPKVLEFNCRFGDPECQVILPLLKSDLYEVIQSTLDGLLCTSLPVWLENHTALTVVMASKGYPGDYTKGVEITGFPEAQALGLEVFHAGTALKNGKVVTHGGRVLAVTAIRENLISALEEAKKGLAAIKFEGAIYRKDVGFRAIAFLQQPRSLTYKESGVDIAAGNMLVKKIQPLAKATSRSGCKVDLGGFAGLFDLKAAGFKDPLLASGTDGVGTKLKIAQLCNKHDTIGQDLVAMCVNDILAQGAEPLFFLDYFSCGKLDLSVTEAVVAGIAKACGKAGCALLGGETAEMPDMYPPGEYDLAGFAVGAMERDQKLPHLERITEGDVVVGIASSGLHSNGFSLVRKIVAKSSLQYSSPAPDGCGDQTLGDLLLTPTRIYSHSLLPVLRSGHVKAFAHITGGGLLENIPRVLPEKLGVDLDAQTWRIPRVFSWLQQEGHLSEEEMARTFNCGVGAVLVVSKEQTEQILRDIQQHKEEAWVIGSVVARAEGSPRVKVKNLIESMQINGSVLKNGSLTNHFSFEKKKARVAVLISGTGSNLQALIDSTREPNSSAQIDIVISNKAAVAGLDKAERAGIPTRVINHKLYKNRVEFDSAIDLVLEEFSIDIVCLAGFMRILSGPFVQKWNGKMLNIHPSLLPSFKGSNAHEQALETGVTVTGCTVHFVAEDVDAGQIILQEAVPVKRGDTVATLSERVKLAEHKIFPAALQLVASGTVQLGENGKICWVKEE

[8] = target: proteins of HEK293T cells transiently overexpressing caspase-6 (Homo sapiens, UniProt P23528); settings: protein CFL1 (P23528)
Chain of proteins of HEK293T cells transiently overexpressing caspase-6 (Homo sapiens, UniProt P23528) (P23528 whole entry): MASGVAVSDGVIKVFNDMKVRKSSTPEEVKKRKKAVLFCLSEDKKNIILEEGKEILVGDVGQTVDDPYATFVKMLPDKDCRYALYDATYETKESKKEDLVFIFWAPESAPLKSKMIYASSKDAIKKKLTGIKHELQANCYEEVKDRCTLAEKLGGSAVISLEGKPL

[9] = target: T1, proteins of HEK293T cells transiently overexpressing caspase-6 (Homo sapiens, UniProt P26583)
T1 sequence (P26583 1-209): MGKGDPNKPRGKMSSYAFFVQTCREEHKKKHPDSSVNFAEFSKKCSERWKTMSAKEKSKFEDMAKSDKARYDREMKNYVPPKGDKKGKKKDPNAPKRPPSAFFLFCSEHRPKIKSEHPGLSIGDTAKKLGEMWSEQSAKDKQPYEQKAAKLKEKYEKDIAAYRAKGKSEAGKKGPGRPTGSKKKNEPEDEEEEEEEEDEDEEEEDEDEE

[10] = target: proteins of HEK293T cells transiently overexpressing caspase-6 (Homo sapiens, UniProt P26639); settings: exp_ref Probe; protein TARS (P26639); analysis C6
[11] = target: proteins of HEK293T cells transiently overexpressing caspase-6 (Homo sapiens, UniProt P31943); settings: exp_ref Probe; protein HNRNPH1 (P31943); analysis C6
[12] = target: proteins of HEK293T cells transiently overexpressing caspase-6 (Homo sapiens, UniProt P33993); settings: Probe; protein MCM7 P33993
Chain of proteins of HEK293T cells transiently overexpressing caspase-6 (Homo sapiens, UniProt P33993) (P33993 whole entry): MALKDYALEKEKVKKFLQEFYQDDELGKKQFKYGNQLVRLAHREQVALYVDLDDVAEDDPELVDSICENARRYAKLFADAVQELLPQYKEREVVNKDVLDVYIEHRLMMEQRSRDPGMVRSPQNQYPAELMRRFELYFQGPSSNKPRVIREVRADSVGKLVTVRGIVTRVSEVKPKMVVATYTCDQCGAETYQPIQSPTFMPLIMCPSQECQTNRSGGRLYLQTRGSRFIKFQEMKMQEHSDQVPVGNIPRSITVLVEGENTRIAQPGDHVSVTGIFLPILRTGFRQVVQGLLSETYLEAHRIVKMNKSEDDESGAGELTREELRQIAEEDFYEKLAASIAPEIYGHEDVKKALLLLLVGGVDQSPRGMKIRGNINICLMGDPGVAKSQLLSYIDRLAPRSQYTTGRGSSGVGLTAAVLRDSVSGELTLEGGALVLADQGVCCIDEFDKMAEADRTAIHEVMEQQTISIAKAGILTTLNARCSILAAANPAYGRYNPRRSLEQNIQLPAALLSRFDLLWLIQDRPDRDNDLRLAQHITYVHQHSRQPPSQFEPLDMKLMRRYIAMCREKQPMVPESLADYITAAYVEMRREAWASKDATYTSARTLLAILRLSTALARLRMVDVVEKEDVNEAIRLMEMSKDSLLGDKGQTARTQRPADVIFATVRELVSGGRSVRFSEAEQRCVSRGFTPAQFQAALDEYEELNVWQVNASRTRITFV

[13] = target: proteins of HEK293T cells transiently overexpressing caspase-6 (Homo sapiens, UniProt P43034); settings: Probe; protein PAFAH1B1 P43034
[14] = target: proteins of HEK293T cells transiently overexpressing caspase-6 (Homo sapiens, UniProt P49368); settings: exp_ref Probe; protein CCT3 (P49368); analysis C6
[15] = target: proteins of HEK293T cells transiently overexpressing caspase-6 (Homo sapiens, UniProt P49588); settings: Probe; protein AARS P49588
Chain of proteins of HEK293T cells transiently overexpressing caspase-6 (Homo sapiens, UniProt P49588) (P49588 whole entry): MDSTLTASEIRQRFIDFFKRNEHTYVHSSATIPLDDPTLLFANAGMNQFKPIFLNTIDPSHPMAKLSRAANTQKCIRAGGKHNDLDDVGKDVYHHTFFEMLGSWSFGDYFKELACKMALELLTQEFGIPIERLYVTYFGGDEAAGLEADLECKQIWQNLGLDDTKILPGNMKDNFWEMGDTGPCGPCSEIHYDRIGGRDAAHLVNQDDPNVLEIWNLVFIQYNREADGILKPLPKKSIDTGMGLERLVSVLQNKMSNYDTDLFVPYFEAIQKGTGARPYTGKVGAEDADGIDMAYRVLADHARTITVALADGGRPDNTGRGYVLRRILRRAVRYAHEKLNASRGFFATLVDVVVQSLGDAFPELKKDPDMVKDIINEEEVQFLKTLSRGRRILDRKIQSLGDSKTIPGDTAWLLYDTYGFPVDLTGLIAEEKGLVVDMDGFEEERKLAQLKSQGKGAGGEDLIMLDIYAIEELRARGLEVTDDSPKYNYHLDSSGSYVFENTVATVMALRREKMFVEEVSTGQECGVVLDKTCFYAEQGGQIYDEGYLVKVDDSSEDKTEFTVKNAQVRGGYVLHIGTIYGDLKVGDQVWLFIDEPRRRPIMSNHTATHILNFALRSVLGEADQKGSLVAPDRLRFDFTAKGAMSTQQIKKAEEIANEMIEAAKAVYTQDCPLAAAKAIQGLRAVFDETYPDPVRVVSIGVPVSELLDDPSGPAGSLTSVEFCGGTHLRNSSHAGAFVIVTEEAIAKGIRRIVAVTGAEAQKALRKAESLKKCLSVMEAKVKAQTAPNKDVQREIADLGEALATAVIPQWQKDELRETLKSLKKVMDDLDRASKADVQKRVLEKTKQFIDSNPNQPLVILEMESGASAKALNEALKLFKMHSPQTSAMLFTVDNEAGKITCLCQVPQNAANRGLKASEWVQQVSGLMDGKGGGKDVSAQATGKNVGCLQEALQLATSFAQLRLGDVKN

[16] = target: proteins of HEK293T cells transiently overexpressing caspase-6 (Homo sapiens, UniProt P49736); settings: Probe; protein MCM2 P49736
[17] = target: proteins of HEK293T cells transiently overexpressing caspase-6 (Homo sapiens, UniProt P54578); settings: Probe; protein USP14 P54578
Chain of proteins of HEK293T cells transiently overexpressing caspase-6 (Homo sapiens, UniProt P54578) (P54578 whole entry): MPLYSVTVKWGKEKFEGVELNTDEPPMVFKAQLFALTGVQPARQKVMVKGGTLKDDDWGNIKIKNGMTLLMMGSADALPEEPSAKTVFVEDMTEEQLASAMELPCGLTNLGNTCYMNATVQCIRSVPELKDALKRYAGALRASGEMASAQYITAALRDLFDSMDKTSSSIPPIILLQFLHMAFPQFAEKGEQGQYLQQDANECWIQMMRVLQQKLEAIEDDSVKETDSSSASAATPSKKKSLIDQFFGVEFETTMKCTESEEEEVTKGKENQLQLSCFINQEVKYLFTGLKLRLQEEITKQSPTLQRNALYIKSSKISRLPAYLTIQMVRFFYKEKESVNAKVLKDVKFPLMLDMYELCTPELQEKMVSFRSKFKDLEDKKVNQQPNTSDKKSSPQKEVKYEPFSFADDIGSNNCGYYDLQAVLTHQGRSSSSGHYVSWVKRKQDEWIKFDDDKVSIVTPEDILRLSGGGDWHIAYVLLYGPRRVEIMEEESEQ

[18] = target: proteins of HEK293T cells transiently overexpressing caspase-6 (Homo sapiens, UniProt P61247); settings: protein RPS3A (P61247)
[19] = target: proteins of HEK293T cells transiently overexpressing caspase-6 (Homo sapiens, UniProt P62249); settings: exp_ref Probe; protein RPS16 (P62249); analysis C6
[20] = target: proteins of HEK293T cells transiently overexpressing caspase-6 (Homo sapiens, UniProt Q01082); settings: Probe; protein SPTBN1 Q01082
[21] = target: proteins of HEK293T cells transiently overexpressing caspase-6 (Homo sapiens, UniProt Q13347); settings: protein EIF3I (Q13347); exp_ref Probe; analysis C6
[22] = target: proteins of HEK293T cells transiently overexpressing caspase-6 (Homo sapiens, UniProt Q16531); settings: Probe; protein DDB1 Q16531
[23] = target: proteins of HEK293T cells transiently overexpressing caspase-6 (Homo sapiens, UniProt Q92900); settings: Probe; protein UPF1 Q92900
[24] = target: proteins of HEK293T cells transiently overexpressing caspase-6 (Homo sapiens, UniProt Q96AG4); settings: protein LRRC59 (Q96AG4); exp_ref Probe; analysis C6
[25] = target: proteins of HEK293T cells transiently overexpressing caspase-6 (Homo sapiens, UniProt Q9UEG4)
Chain of proteins of HEK293T cells transiently overexpressing caspase-6 (Homo sapiens, UniProt Q9UEG4) (Q9UEG4 whole entry): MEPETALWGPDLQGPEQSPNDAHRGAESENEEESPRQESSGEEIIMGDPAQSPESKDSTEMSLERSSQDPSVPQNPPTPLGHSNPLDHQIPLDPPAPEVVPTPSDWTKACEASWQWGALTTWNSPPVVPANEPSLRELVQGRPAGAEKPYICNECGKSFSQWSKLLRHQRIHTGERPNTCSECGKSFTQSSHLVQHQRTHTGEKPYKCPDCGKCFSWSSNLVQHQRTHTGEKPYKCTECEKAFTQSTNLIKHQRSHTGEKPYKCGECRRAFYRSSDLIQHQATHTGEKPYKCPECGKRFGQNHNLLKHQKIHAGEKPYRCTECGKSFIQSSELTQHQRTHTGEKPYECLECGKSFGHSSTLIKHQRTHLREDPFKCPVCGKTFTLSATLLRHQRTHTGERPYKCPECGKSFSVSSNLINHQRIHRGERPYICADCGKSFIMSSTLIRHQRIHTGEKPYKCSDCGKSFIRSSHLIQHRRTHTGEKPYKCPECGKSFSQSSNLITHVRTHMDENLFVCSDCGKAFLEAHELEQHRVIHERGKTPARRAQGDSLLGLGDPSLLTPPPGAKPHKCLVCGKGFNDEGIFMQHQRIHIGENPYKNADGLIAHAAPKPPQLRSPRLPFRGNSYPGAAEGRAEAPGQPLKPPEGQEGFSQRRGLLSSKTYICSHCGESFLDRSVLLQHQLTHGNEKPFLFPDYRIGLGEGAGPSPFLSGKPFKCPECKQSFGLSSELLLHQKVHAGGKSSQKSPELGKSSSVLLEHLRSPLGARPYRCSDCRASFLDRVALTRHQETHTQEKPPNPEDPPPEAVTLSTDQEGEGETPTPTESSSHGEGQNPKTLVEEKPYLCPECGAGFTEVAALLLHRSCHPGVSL

C#CCOc1ccc([C@@H]2C[C@@H](C(=O)Nc3ccc(OC(F)(F)F)cc3)CN(S(=O)(=O)C=C)C2)cc1 (relative stereo) [13-t]
enrich.exp.med [1]: -2.018
enrich.exp.med [2]: 0.7182
enrich.exp.med [3]: -1.006
enrich.exp.med [4]: -6.8
enrich.exp.med [5]: -0.0188
enrich.exp.med [6]: 0.5148
enrich.exp.med [7]: 0.2203
enrich.exp.med ([8]; exp_ref Probe, analysis C6): 0.4078
enrich.exp.med.lin [8]: 1.327
enrich.exp.med.log2 [8]: 0.4078
enrich.exp.med ([9]; Probe, protein HMGB2 P26583): -1.024
enrich.exp.med.lin ([9]; protein HMGB2 (P26583)): 0.4916
enrich.exp.med.log2 ([9]; protein HMGB2 (P26583)): -1.024
enrich.exp.med [10]: 0.1344
enrich.exp.med [11]: -0.1466
enrich.exp.med [12]: -1.046
enrich.exp.med [13]: -1.169
enrich.exp.med [14]: 0.6394
enrich.exp.med [15]: -2.083
enrich.exp.med [16]: -1.091
enrich.exp.med [17]: -0.5802
enrich.exp.med ([18]; exp_ref Probe, analysis C6): 1.085
enrich.exp.med.lin [18]: 2.121
enrich.exp.med.log2 [18]: 1.085
enrich.exp.med [19]: -0.2776
enrich.exp.med [20]: -1.031
enrich.exp.med [21]: 1.576
enrich.exp.med [22]: -0.5354
enrich.exp.med [23]: -0.4971
enrich.exp.med [24]: 2.108
enrich.exp.med ([25]; Probe, protein ZNF629 Q9UEG4): -2.2193
enrich.exp.med.lin ([25]; protein ZNF629 (Q9UEG4)): 0.2147
enrich.exp.med.log2 ([25]; protein ZNF629 (Q9UEG4)): -2.2193
